{
  "source": "paper PMC9478638",
  "about": "(Proceedings of the National Academy of Sciences of the …, 2022)",
  "key": {"E. coli Dgt": {"target": "T1, E. coli Dgt (Escherichia coli, UniProt P15723)", "T1 sequence (P15723 1-505)": "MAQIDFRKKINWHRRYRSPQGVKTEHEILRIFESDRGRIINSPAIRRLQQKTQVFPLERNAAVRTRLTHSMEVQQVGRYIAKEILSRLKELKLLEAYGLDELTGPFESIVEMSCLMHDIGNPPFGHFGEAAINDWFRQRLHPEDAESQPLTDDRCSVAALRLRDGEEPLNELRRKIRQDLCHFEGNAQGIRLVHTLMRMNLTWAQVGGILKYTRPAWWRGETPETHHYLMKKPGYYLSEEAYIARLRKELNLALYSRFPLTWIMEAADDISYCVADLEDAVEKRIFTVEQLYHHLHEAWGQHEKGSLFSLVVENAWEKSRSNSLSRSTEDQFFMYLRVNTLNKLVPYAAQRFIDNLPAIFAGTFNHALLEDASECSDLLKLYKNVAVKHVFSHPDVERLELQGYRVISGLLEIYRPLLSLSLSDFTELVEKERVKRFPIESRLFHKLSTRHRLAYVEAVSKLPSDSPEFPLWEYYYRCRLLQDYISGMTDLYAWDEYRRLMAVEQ", "assay": "PNP/xanthine oxidase coupled dGTPase assay, A297", "assay_type": "biochemical"}, "Dgt–Gp1.2 complex": {"target": "T2, Dgt–Gp1.2 complex (Escherichia coli; Escherichia phage T7, UniProt P03780+P15723)", "T2 sequence (P15723 1-505)": "T1 sequence (P15723 1-505)", "T2 sequence (P03780 2-85)": "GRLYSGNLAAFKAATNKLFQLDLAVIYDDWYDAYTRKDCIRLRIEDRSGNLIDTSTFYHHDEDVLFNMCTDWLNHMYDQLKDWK", "assay": "PNP/xanthine oxidase coupled dGTPase assay, A297", "assay_type": "biochemical"}},
  "data": [
    {"smiles": "Nc1nc2c(ncn2[C@@H]2O[C@H](COP(=O)(O)OP(=O)(O)OP(=O)(O)O)[C@@H](O)[C@H]2O)c(=O)[nH]1", "note": "[GTP]", "values": [
      {"measurement": "Ki", "setting": "E. coli Dgt", "value": "120 ± 50", "unit": "µM"},
      {"measurement": "IC50", "setting": "Dgt–Gp1.2 complex", "value": "0.31 ± 0.05", "unit": "µM"}
    ]}
  ]
}
